What all share (test): relative viability (nuclei count vs DMSO), 5 days (fraction); higher = more cells survive
Compound in experiment [1]: CNC(=O)c1ccccc1Sc1ccc2c(/C=C/c3ccccn3)n[nH]c2c1 [Axitinib] + CC(=O)Nc1cccc(-n2c(=O)n(C3CC3)c(=O)c3c(Nc4ccc(I)cc4F)n(C)c(=O)c(C)c32)c1 [Trametinib] (partner 0.02 µM)
The gist of the method:
(§1)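 Lung cancer cell lines, seeded in 1536-well plates, were treated the following day by pin tool with a single drug or with five library-drug doses (not always all listed) in √10 steps on top of a fixed anchor-drug dose. Cells were fixed and nuclei stained in one step after 5 days, and nuclei were counted. Relative viability is the nuclei count for treated wells divided by that for vehicle wells, reported as medians of duplicate plates.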

Compound in experiment [2]: CNC(=O)c1ccccc1Sc1ccc2c(/C=C/c3ccccn3)n[nH]c2c1 [Axitinib] + CS(=O)(=O)CCNCc1ccc(-c2ccc3ncnc(Nc4ccc(OCc5cccc(F)c5)c(Cl)c4)c3c2)o1 [Lapatinib] (partner 2 µM)
The gist of the method: as §1

Compound in experiment [3]: CC1=CC=C(C=C1)C(=O)CN2C3=C(CCCC3)SC2=N [Pifithrin_alpha] + O=C(c1cc(Cc2n[nH]c(=O)c3ccccc23)ccc1F)N1CCN(C(=O)C2CC2)CC1 [Olaparib] (partner 8 µM)
The gist of the method: as §1

Compound in experiment [4]: CC1=CC=C(C=C1)C(=O)CN2C3=C(CCCC3)SC2=N [Pifithrin_alpha] + Cc1nc(NC(=O)N2CCC[C@H]2C(N)=O)sc1-c1ccnc(C(C)(C)C(F)(F)F)c1 [Alpelisib] (partner 2 µM)
Put shortly: as §1

As to 201T, the relative viability is 0.715 in experiment [1] (first compound 0.005 µM); 0.682 in experiment [1] (first compound 0.01581 µM); 0.711 in experiment [1] (first compound 0.05 µM); 0.713 in experiment [1] (first compound 0.1581 µM); 0.732 in experiment [1] (first compound 0.5 µM); 1.01 in experiment [2] (first compound 0.005 µM). Further, the relative viability in experiment [2] (first compound 0.01581 µM) stood at 1.03; in experiment [2] (first compound 0.05 µM), 1.07; in experiment [2] (first compound 0.1581 µM), 1.05; in experiment [2] (first compound 0.5 µM), 0.966; in experiment [3] (first compound 1 µM), 0.843; in experiment [3] (first compound 3.162 µM) it was 0.891. The relative viability came to 0.601 in experiment [3] (first compound 10 µM); 0.564 in experiment [3] (first compound 31.62 µM); 0.619 in experiment [3] (first compound 100 µM); 1.04 in experiment [4] (first compound 1 µM); 0.83 in experiment [4] (first compound 3.162 µM); 0.792 in experiment [4] (first compound 10 µM). Besides, the results for the relative viability in experiment [4] (first compound 31.62 µM) and in experiment [4] (first compound 100 µM) were 0.81 and 0.79, respectively.

On to A549, for which the relative viability in experiment [2] (first compound 0.005 µM) amounted to 0.896; in experiment [2] (first compound 0.01581 µM) it was 1; in experiment [2] (first compound 0.05 µM) it was 0.997; in experiment [2] (first compound 0.1581 µM) it was 0.902; in experiment [2] (first compound 0.5 µM), 1.01; in experiment [3] (first compound 3.162 µM), 0.473. Moreover, the relative viability in experiment [3] (first compound 10 µM) was determined as 0.338; in experiment [3] (first compound 31.62 µM), 0.175; in experiment [3] (first compound 100 µM), 0.276; in experiment [4] (first compound 1 µM), 0.895; in experiment [4] (first compound 3.162 µM) it was 0.777; in experiment [4] (first compound 10 µM) it was 0.644. Moreover, the results for the relative viability in experiment [4] (first compound 31.62 µM) and in experiment [4] (first compound 100 µM) were 0.698 and 0.799, respectively.

As for A-427, the relative viability in experiment [1] (first compound 0.005 µM) was 0.89; in experiment [1] (first compound 0.01581 µM), 0.711; in experiment [1] (first compound 0.05 µM), 0.758; in experiment [1] (first compound 0.1581 µM), 0.761; in experiment [1] (first compound 0.5 µM) it was 0.879; in experiment [2] (first compound 0.005 µM), 1.1. Further, the relative viability in experiment [2] (first compound 0.01581 µM) is 1.01; in experiment [2] (first compound 0.05 µM), 1.08; in experiment [2] (first compound 0.1581 µM), 1.06; in experiment [2] (first compound 0.5 µM) it was 1.06; in experiment [3] (first compound 1 µM) it was 0.676; in experiment [3] (first compound 3.162 µM), 0.623. Also, the relative viability in experiment [3] (first compound 10 µM) came to 0.574; in experiment [3] (first compound 31.62 µM), 0.339; in experiment [3] (first compound 100 µM), 0.493; in experiment [4] (first compound 1 µM), 0.756; in experiment [4] (first compound 3.162 µM), 1.04; in experiment [4] (first compound 10 µM) it was 1.03. For the same cell line, the relative viability turned out to be 0.836 in experiment [4] (first compound 31.62 µM) and 1 in experiment [4] (first compound 100 µM).

Turning to ABC-1, the relative viability was 1.19 in experiment [2] (first compound 0.005 µM); 1.28 in experiment [2] (first compound 0.01581 µM); 1.01 in experiment [2] (first compound 0.05 µM); 1.32 in experiment [2] (first compound 0.1581 µM); 1.21 in experiment [2] (first compound 0.5 µM); 0.774 in experiment [3] (first compound 3.162 µM). Further, the relative viability was determined as 0.557 in experiment [3] (first compound 10 µM); 0.405 in experiment [3] (first compound 31.62 µM); 0.477 in experiment [3] (first compound 100 µM); 0.945 in experiment [4] (first compound 1 µM); 0.983 in experiment [4] (first compound 3.162 µM); 0.732 in experiment [4] (first compound 10 µM). Further, the relative viability in experiment [4] (first compound 31.62 µM) stood at 0.682; in experiment [4] (first compound 100 µM), 0.661.

For the cell line BEN, the relative viability amounted to 1.33 in experiment [1] (first compound 0.005 µM); 1.04 in experiment [1] (first compound 0.01581 µM); 0.885 in experiment [1] (first compound 0.05 µM); 0.992 in experiment [1] (first compound 0.1581 µM); 1.01 in experiment [1] (first compound 0.5 µM); 0.695 in experiment [2] (first compound 0.005 µM). Also, the relative viability in experiment [2] (first compound 0.01581 µM) amounted to 0.648; in experiment [2] (first compound 0.05 µM) it was 0.592; in experiment [2] (first compound 0.1581 µM) it was 0.563; in experiment [2] (first compound 0.5 µM) it was 0.497; in experiment [3] (first compound 1 µM), 1.01; in experiment [3] (first compound 3.162 µM), 1.13. Moreover, the relative viability in experiment [3] (first compound 10 µM) was 1.01; in experiment [3] (first compound 31.62 µM), 0.562; in experiment [3] (first compound 100 µM) it was 1.01; in experiment [4] (first compound 1 µM) it was 1.01; in experiment [4] (first compound 3.162 µM) it was 1.19; in experiment [4] (first compound 10 µM), 1.14. For the same cell line, the relative viability in experiment [4] (first compound 31.62 µM) was found to be 0.965; in experiment [4] (first compound 100 µM), 1.22.

As for CAL-12T, the relative viability came out at 0.401 in experiment [1] (first compound 0.005 µM); 0.311 in experiment [1] (first compound 0.01581 µM); 0.336 in experiment [1] (first compound 0.05 µM); 0.288 in experiment [1] (first compound 0.1581 µM); 0.338 in experiment [1] (first compound 0.5 µM); 0.712 in experiment [2] (first compound 0.005 µM). Further, the relative viability in experiment [2] (first compound 0.01581 µM) is 0.693; in experiment [2] (first compound 0.05 µM), 0.609; in experiment [2] (first compound 0.1581 µM) it was 0.645; in experiment [2] (first compound 0.5 µM), 0.624; in experiment [3] (first compound 1 µM) it was 0.706; in experiment [3] (first compound 3.162 µM) it was 0.631. Besides, the relative viability in experiment [3] (first compound 10 µM) worked out at 0.535; in experiment [3] (first compound 31.62 µM), 0.46; in experiment [3] (first compound 100 µM), 0.574; in experiment [4] (first compound 3.162 µM) it was 1.04; in experiment [4] (first compound 10 µM), 0.971; in experiment [4] (first compound 31.62 µM), 0.736. For the same cell line, the relative viability in experiment [4] (first compound 100 µM) amounted to 1.13.

As to Calu-6, the relative viability worked out at 1.07 in experiment [2] (first compound 0.005 µM); 1.11 in experiment [2] (first compound 0.01581 µM); 1.08 in experiment [2] (first compound 0.05 µM); 1.06 in experiment [2] (first compound 0.1581 µM); 1.39 in experiment [2] (first compound 0.5 µM); 0.534 in experiment [3] (first compound 1 µM). In addition, the relative viability in experiment [3] (first compound 3.162 µM) was 0.536; in experiment [3] (first compound 10 µM) it was 0.46; in experiment [3] (first compound 100 µM), 0.427; in experiment [4] (first compound 1 µM), 0.884; in experiment [4] (first compound 3.162 µM) it was 0.918; in experiment [4] (first compound 10 µM), 0.961. The relative viability in experiment [4] (first compound 31.62 µM) was found to be 0.622; in experiment [4] (first compound 100 µM), 0.857.

For ChaGo-K-1, the relative viability in experiment [1] (first compound 0.005 µM) stood at 0.872; in experiment [1] (first compound 0.01581 µM) it was 0.874; in experiment [1] (first compound 0.05 µM), 0.902; in experiment [1] (first compound 0.1581 µM), 0.858; in experiment [1] (first compound 0.5 µM), 0.887; in experiment [3] (first compound 1 µM), 0.404. In addition, the relative viability is 0.424 in experiment [3] (first compound 3.162 µM), 0.336 in experiment [3] (first compound 10 µM), 0.231 in experiment [3] (first compound 31.62 µM) and 0.371 in experiment [3] (first compound 100 µM).

As for EBC-1, the relative viability was determined as 0.218 in experiment [2] (first compound 0.005 µM); 0.218 in experiment [2] (first compound 0.01581 µM); 0.172 in experiment [2] (first compound 0.05 µM); 0.239 in experiment [2] (first compound 0.1581 µM); 0.221 in experiment [2] (first compound 0.5 µM); 0.621 in experiment [3] (first compound 1 µM). For the same cell line, the relative viability stood at 0.552 in experiment [3] (first compound 3.162 µM); 0.348 in experiment [3] (first compound 10 µM); 0.298 in experiment [3] (first compound 31.62 µM); 0.363 in experiment [3] (first compound 100 µM); 0.821 in experiment [4] (first compound 1 µM); 0.834 in experiment [4] (first compound 3.162 µM). Also, the relative viability was found to be 0.683 in experiment [4] (first compound 10 µM), 0.558 in experiment [4] (first compound 31.62 µM) and 0.602 in experiment [4] (first compound 100 µM).

Source of the values: the supplement of paper PMC10307832.
